Experimental data: article PMC10165273, “Itch receptor MRGPRX4 interacts with the receptor activity–modifying proteins” (The Journal of Biological Chemistry, 2023)
“And” between values parts separate entries of the source, which are not always exact repeats. Identical values can stand only once. Like-named read-outs stand apart in the source and are kept apart here.

Target: T1, MRGPRX4 (Homo sapiens, UniProt Q96LA9)
T1 construct: expressed in transfected cells; host or cells: HEK293T
Experiment: IP1 accumulation HTRF assay, MRGPRX4
Assay type: cell-based
Parameters: key to IP1 Basal / IP1 accumulation with YM (Figure 1c) / response to agonist, MRGPRX4 / IP1 accumulation: % IP1: unstimulated mock-transfected = 0%, fully stimulated MRGPRX4 = 100%
Conditions: for IP1 accumulation: MRGPRX4 alone, Fig S3d-f
Procedure: HEK293T cells were transfected with 1 pg/cell of MRGPRX4 DNA, and the amount of DNA was kept constant at 2 pg/cell with pcDNA3.1(+) empty vector, unless otherwise specified. Twenty four hours after transfection, IP1 assay was performed as previously described ([51]). When applicable, cells were treated with 1 μM YM254890 (YM) or different concentrations of U73122 for 1 h prior to addition of agonist or buffer. After incubation for 2 h, HTRF reagents and IP1 calibration standards were added and incubated for 2 h in the dark at room temperature. Time-resolved fluorescence signals were read on the BioTek Synergy NEO-TRF Hybrid multi-mode reader (BioTek Instruments). All data were carried out in three independent experiments with three technical replicate each.
For characterization of the Tet-On Nluc-HT7-MRGPRX4-GFP10-1D4 construct, HEK293T cells were transfected as previously described with some modifications. Dox dose-response of NLuc-HT7-MRGPRX4-GFP10-1D4 DNA titration was assayed by transfecting HEK293T cells with either 1 or 2 pg/cell of NLuc-HT7-MRGPRX4-GFP10-1D4 construct. Receptor expression was induced 4 h after transfection with addition of different concentrations of dox for 20 h. For the RAMP DNA titration assay, cells were cotransfected with a constant amount of 1 pg/cell of NLuc-HT7-MRGPRX4-GFP10-1D4 DNA and 1, 0.75, 0.5, or 0 pg/cell of each HA-RAMP-OLLAS with the homogenous transfection method. Four hours after transfection, receptor expression was induced with addition of 1000 ng/ml dox. Twenty hours after induction, IP1 assay was performed.
Data reduction, standard calibration, and transformation of HTRF data were performed as previously described ([51]). Normalized IP1 values were calculated relative to the unstimulated mock-transfected cells (set to 0%) and fully stimulated MRGPRX4 (alone if applicable) (set to 100%).

T1 sequence (Q96LA9 whole entry): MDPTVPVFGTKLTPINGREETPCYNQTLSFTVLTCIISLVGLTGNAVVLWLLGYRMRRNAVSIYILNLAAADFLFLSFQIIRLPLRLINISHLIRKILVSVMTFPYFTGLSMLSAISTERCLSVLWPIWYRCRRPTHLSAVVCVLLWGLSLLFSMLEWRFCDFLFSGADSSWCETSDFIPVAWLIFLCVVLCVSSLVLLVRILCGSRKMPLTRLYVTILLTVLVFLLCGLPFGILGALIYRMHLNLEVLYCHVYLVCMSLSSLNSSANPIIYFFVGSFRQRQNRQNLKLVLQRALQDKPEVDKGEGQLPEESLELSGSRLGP

C[C@H](CCC(=O)O)[C@H]1CC[C@H]2[C@@H]3CC[C@@H]4C[C@H](O)CC[C@]4(C)[C@H]3C[C@H](O)[C@]12C [DCA, deoxycholic acid]
efficacy (Figure 4a bottom, MRGPRX4 alone (reference = 100), individual replicates): 100
Emax (Figure 4a bottom, MRGPRX4 alone (reference = 100), individual replicates, read-out: efficacy): 100%
response to agonist, MRGPRX4 (Figure 4c-f, agonist 100µM, MRGPRX4 alone (reference = 100)): 100
normalized IP1 accumulation (HA-MRGX4-1D4, log [agonist] (M) -4): 58.1095 and 47.3107
normalized IP1 accumulation (HA-MRGX4-1D4, log [agonist] (M) -4.69897): 33.2327 and 34.6328
normalized IP1 accumulation (HA-MRGX4-1D4, log [agonist] (M) -5.39794): 18.9895
normalized IP1 accumulation (HA-MRGX4-1D4, log [agonist] (M) -6.09691): 13.2757 and 15.4467
normalized IP1 accumulation (HA-MRGX4-1D4, log [agonist] (M) -6.79588): 13.3916 and 13.9578
normalized IP1 accumulation (HA-MRGX4-1D4, log [agonist] (M) -7.49485): 12.579 and 14.4894
Emax (HEK-293T, MRGPRX4 (Fig. 1A), HEK293T, normalized to 100 μM nateglinide, read-out: IP1 Emax): 77.9%
Emax (HEK-293T, MRGPRX4 (Fig. 1A), HEK293T, normalized to 100 μM nateglinide, read-out: IP1 span): 62.9%
Emax (MRGPRX4 0.125 pg DNA/cell, individual experiments, read-out: efficacy (Figure 1b bottom)): 47.9%
Emax (MRGPRX4 0.25 pg DNA/cell, individual experiments, read-out: efficacy (Figure 1b bottom)): 45%
Emax (MRGPRX4 0.5 pg DNA/cell, individual experiments, read-out: efficacy (Figure 1b bottom)): 58.3%
Emax (MRGPRX4 1 pg DNA/cell, individual experiments, read-out: efficacy (Figure 1b bottom)): 70.6%
Emax (MRGPRX4 2 pg DNA/cell, individual experiments, read-out: efficacy (Figure 1b bottom)): 80.7%
IP1 Basal (MRGPRX4 (Fig. 1A), HEK293T, normalized to 100 μM nateglinide): 15.03
IP1 Basal (MRGPRX4 DNA 0.25 pg/cell (Fig. S1)): 4.249
Emax (MRGPRX4 DNA 0.25 pg/cell (Fig. S1), read-out: IP1 Emax): 54.2%
Emax (MRGPRX4 DNA 0.25 pg/cell (Fig. S1), read-out: IP1 span): 50%
IP1 Basal (MRGPRX4 DNA 0.5 pg/cell (Fig. S1)): 6.783
Emax (MRGPRX4 DNA 0.5 pg/cell (Fig. S1), read-out: IP1 Emax): 68%
Emax (MRGPRX4 DNA 0.5 pg/cell (Fig. S1), read-out: IP1 span): 61.2%
IP1 Basal (MRGPRX4 DNA 1 pg/cell (Fig. S1)): 9.471
Emax (MRGPRX4 DNA 1 pg/cell (Fig. S1), read-out: IP1 Emax): 73.8%
Emax (MRGPRX4 DNA 1 pg/cell (Fig. S1), read-out: IP1 span): 64.3%
IP1 Basal (MRGPRX4 DNA 2 pg/cell (Fig. S1)): 12.99
Emax (MRGPRX4 DNA 2 pg/cell (Fig. S1), read-out: IP1 Emax): 87.2%
Emax (MRGPRX4 DNA 2 pg/cell (Fig. S1), read-out: IP1 span): 74.2%
Emax (MRGPRX4 DNA […] (Fig. S1), read-out: IP1 Emax): 50.3%
Emax (MRGPRX4 DNA […] (Fig. S1), read-out: IP1 span): 47%
IP1 accumulation (log [DCA] (M) -4.69897): 57.1868 and 75.4734
IP1 accumulation (log [DCA] (M) -5.39794): 30.3386
IP1 accumulation (log [DCA] (M) -6.09691): 23.4514 and 33.1858
IP1 accumulation (log [DCA] (M) -6.79588): 21.3567 and 30.9234
IP1 accumulation (log [DCA] (M) -7.49485): 19.4869 and 27.2792
normalized IP1 accumulation (SP-FLAG-Nluc-HT7-MRGX4_Tet-GFP10-1D4, log [agonist] (M) -4.09691): 41.457 and 40.0931
normalized IP1 accumulation (SP-FLAG-Nluc-HT7-MRGX4_Tet-GFP10-1D4, log [agonist] (M) -4.79588): 23.5519 and 24.4487
normalized IP1 accumulation (SP-FLAG-Nluc-HT7-MRGX4_Tet-GFP10-1D4, log [agonist] (M) -5.49485): 12.8144 and 13.3904
normalized IP1 accumulation (SP-FLAG-Nluc-HT7-MRGX4_Tet-GFP10-1D4, log [agonist] (M) -6.19382): 11.7164 and 10.0407
normalized IP1 accumulation (SP-FLAG-Nluc-HT7-MRGX4_Tet-GFP10-1D4, log [agonist] (M) -6.89279): 9.829 and 11.4364
normalized IP1 accumulation (SP-FLAG-Nluc-HT7-MRGX4_Tet-GFP10-1D4, log [agonist] (M) -7.59176): 10.7139 and 10.5391
normalized IP1 accumulation (SP-FLAG-Nluc-HT7-MRGX4_Tet-GFP10-1D4 no dox, log [agonist] (M) -4.09691): 9.638 and 9.7
normalized IP1 accumulation (SP-FLAG-Nluc-HT7-MRGX4_Tet-GFP10-1D4 no dox, log [agonist] (M) -4.79588): 7.503 and 8.174
normalized IP1 accumulation (SP-FLAG-Nluc-HT7-MRGX4_Tet-GFP10-1D4 no dox, log [agonist] (M) -5.49485): 9.457 and 8.365
normalized IP1 accumulation (SP-FLAG-Nluc-HT7-MRGX4_Tet-GFP10-1D4 no dox, log [agonist] (M) -6.19382): 8.686 and 8.091
normalized IP1 accumulation (SP-FLAG-Nluc-HT7-MRGX4_Tet-GFP10-1D4 no dox, log [agonist] (M) -6.89279): 8.749 and 8.325
normalized IP1 accumulation (SP-FLAG-Nluc-HT7-MRGX4_Tet-GFP10-1D4 no dox, log [agonist] (M) -7.59176): 8.705 and 9.2498
normalized IP1 accumulation (SP-Flag-MRGX4-1D4, log [agonist] (M) -4): 68.6268 and 66.4742
normalized IP1 accumulation (SP-Flag-MRGX4-1D4, log [agonist] (M) -4.69897): 30.127 and 33.8796
normalized IP1 accumulation (SP-Flag-MRGX4-1D4, log [agonist] (M) -5.39794): 14.3992 and 13.1143
normalized IP1 accumulation (SP-Flag-MRGX4-1D4, log [agonist] (M) -6.09691): 8.224 and 9.664
normalized IP1 accumulation (SP-Flag-MRGX4-1D4, log [agonist] (M) -6.79588): 7.099 and 7.695
normalized IP1 accumulation (SP-Flag-MRGX4-1D4, log [agonist] (M) -7.49485): 6.315 and 7.555
normalized IP1 accumulation (SP-Flag-MRGX4-GFP10-1D4, log [agonist] (M) -4): 68.4519 and 65.3389
normalized IP1 accumulation (SP-Flag-MRGX4-GFP10-1D4, log [agonist] (M) -4.69897): 36.0479 and 38.0394
normalized IP1 accumulation (SP-Flag-MRGX4-GFP10-1D4, log [agonist] (M) -6.09691): 10.072 and 10.3886
normalized IP1 accumulation (SP-Flag-MRGX4-GFP10-1D4, log [agonist] (M) -6.79588): 8.9869 and 9.025
normalized IP1 accumulation (SP-Flag-MRGX4-GFP10-1D4, log [agonist] (M) -7.49485): 7.933 and 9.527
IP1 Basal (construct FLAG-MRGPRX4-1D4 (Fig. S4A-F)): 7.469
Emax (construct FLAG-MRGPRX4-1D4 (Fig. S4A-F), read-out: IP1 Emax): 96.3%
Emax (construct FLAG-MRGPRX4-1D4 (Fig. S4A-F), read-out: IP1 span): 88.8%
IP1 Basal (construct FLAG-MRGPRX4-GFP10-1D4 (Fig. S4A-F)): 8.165
Emax (construct FLAG-MRGPRX4-GFP10-1D4 (Fig. S4A-F), read-out: IP1 Emax): 88.5%
Emax (construct FLAG-MRGPRX4-GFP10-1D4 (Fig. S4A-F), read-out: IP1 span): 80.4%
IP1 Basal (construct FLAG-NLuc-HT7-MRGPRX4-GFP10-1D4 (Fig. S4A-F)): 10.56
Emax (construct FLAG-NLuc-HT7-MRGPRX4-GFP10-1D4 (Fig. S4A-F), read-out: IP1 Emax): 55%
Emax (construct FLAG-NLuc-HT7-MRGPRX4-GFP10-1D4 (Fig. S4A-F), read-out: IP1 span): 44.5%
IP1 Basal (construct HA-MRGPRX4-1D4 (Fig. S4A-F)): 12.52
Emax (construct HA-MRGPRX4-1D4 (Fig. S4A-F), read-out: IP1 Emax): 64.7%
Emax (construct HA-MRGPRX4-1D4 (Fig. S4A-F), read-out: IP1 span): 52.2%
